Blank lines part the entries; values can stand above or below the compound they belong to.
Experiments:
[1] = tested on: patients with HIV-associated NAFLD; settings: Ajmera et al., Hepatology 2019; cited from earlier work
[2] = tested on: patients with primary NAFLD; settings: cited from earlier work
[3] = tested on: HIV-infected subjects with NAFL/NASH; design: species or system human; settings: in vivo
Method: The study consisted of a 12-month, double-blind treatment phase during which participants were randomized in a 1:1 ratio receive to tesamorelin 2 mg daily or identical placebo, followed by a 6-month open label phase during which all participants receive tesamorelin. The pre-specified primary analysis, comparing changes over twelve months in tesamorelin vs. placebo treatment, is reported here. Randomization was stratified by site (NIH and MGH) and vitamin E use, defined as consistent use of ≥400 international units daily. The randomization list was prepared by the study statistician using a permuted block algorithm within each stratum with randomly varying block sizes. […] IGF-1 Z-scores were monitored throughout the study by an independent endocrinologist at MGH otherwise unaffiliated with the study. […]
Laboratory analyses were conducted using standard methodologies. Clinical labs were measured at the NIH Clinical Laboratory and, for MGH, at LabCorp and Quest. IGF-1 was measured centrally at Quest Laboratories. C-reactive protein was measured using electrochemiluminescense (Meso Scale Discovery, Rockville, MD), and adiponectin was measured using ELISA (R&D Systems, Minneapolis, MN).
Per the pre-specified analysis plan, change in HFF was assessed by random intercept mixed effects modeling using restricted maximum likelihood to assess the effect estimate for the time×randomization interaction. […]

[4] = tested on: HIV-infected subjects with NAFL/NASH; design: species or system human; settings: in vivo; remark: listed apart in the source
Method: Participants at MGH also underwent a euglycemic hyperinsulinemic clamp procedure to assess insulin sensitivity. After a 14-hour overnight fast, a low-dose (insulin 20 mU/m^2/min) clamp for 2 hours was followed by a high-dose (insulin 80 mU/m^2/min) clamp for 2 hours as previously described (Braun L R, et al. Effects of Pitavastatin on Insulin Sensitivity and Liver Fat: A Randomized Clinical Trial. J Clin Endocrinol Metab 2018; 103:4176-86). Insulin stimulated glucose disposal (M) were calculated during the last 20 minutes of low-dose and high-dose clamp using the DeFronzo method (DeFronzo R A, Tobin J D, Andres R. Am J Physiol 1979; 237:E214-23) as the primary indices of hepatic and whole-body insulin sensitivity, respectively.

[5] = tested on: HIV-infected subjects with NAFL/NASH; settings: in vivo
[6] = tested on: NASH in the general population; settings: cited from earlier work

Compound: CCCCCCCCCCCCCCCCCCCC(=O)N[C@H]1CC[C@@]2(C)[C@@H](C1)C[C@@H](O)[C@@H]1[C@@H]2C[C@H](O)[C@]2(C)[C@@H]([C@H](C)CCC(=O)O)CC[C@@H]12 [aramchol]
effect in patients with HIV-associated NAFLD [1]: no significant effect
hepatic-fat content [2]: reduce

fasting glucose [3]: did not significantly affect
hemoglobin A1c [3]: did not significantly affect
treatment effect for high-dose M (insulin stimulated glucose uptake, high-dose clamp) [4]: −0.9
treatment effect for low-dose M (glucose infusion rate, low-dose clamp) [4]: 0.0 mg/kg/min
Arthralgia [5]: 3
Hyperglycemia [5]: 12
Injection site bruising [5]: 11
Injection site erythema [5]: 3
Injection site stinging [5]: 4
Myalgia [5]: 2
Other infection [5]: 7
Other injection site complaints [5]: 10
Paresthesia [5]: 2
URI [5]: 5
discontinuations for hyperglycemia [5]: two
Compound: CC/C=C/CC(=O)N[C@@H](Cc1ccc(O)cc1)C(=O)N[C@@H](C)C(=O)N[C@@H](CC(=O)O)C(=O)N[C@@H](C)C(=O)N[C@H](C(=O)N[C@@H](Cc1ccccc1)C(=O)N[C@H](C(=O)N[C@@H](CC(N)=O)C(=O)N[C@@H](CO)C(=O)N[C@@H](Cc1ccc(O)cc1)C(=O)N[C@@H](CCCNC(=N)N)C(=O)N[C@@H](CCCCN)C(=O)N[C@H](C(=O)N[C@@H](CC(C)C)C(=O)NCC(=O)N[C@@H](CCC(N)=O)C(=O)N[C@@H](CC(C)C)C(=O)N[C@@H](CO)C(=O)N[C@@H](C)C(=O)N[C@@H](CCCNC(=N)N)C(=O)N[C@@H](CCCCN)C(=O)N[C@@H](CC(C)C)C(=O)N[C@@H](CC(C)C)C(=O)N[C@@H](CCC(N)=O)C(=O)N[C@@H](CC(=O)O)C(=O)N[C@H](C(=O)N[C@@H](CCSC)C(=O)N[C@@H](CO)C(=O)N[C@@H](CCCNC(=N)N)C(=O)N[C@@H](CCC(N)=O)C(=O)N[C@@H](CCC(N)=O)C(=O)NCC(=O)N[C@@H](CCC(=O)O)C(=O)N[C@@H](CO)C(=O)N[C@@H](CC(N)=O)C(=O)N[C@@H](CCC(N)=O)C(=O)N[C@@H](CCC(=O)O)C(=O)N[C@@H](CCCNC(=N)N)C(=O)NCC(=O)N[C@@H](C)C(=O)N[C@@H](CCCNC(=N)N)C(=O)N[C@@H](C)C(=O)N[C@@H](CCCNC(=N)N)C(=O)N[C@@H](CC(C)C)C(N)=O)[C@@H](C)CC)C(C)C)[C@@H](C)O)[C@@H](C)CC [Tesamorelin, trans-3-hexenoyl-GHRH(1-44)-NH2]
Any adverse event [5]: 29
Other adverse events [5]: 25
relation of serious adverse events to study drug [5]: None were judged as related to study drug

Compound: Vitamin E
histological features of NASH [6]: improve
